In US20210330756A1, “Acetylation of Miro1” (University of South Carolina, priority 2020, published 2021):

What was measured:
[1] = tested on: axons of adult mouse DRG neurons; assay: Microfluidic devices: exposure limited to axons of DRG neurons; format: cell-based
Description: To determine if the effect of growth inhibitors on mitochondrial recovery was limited to distal axons, we performed FRAP on more proximal segments of the axon shaft in DRG neurons expressing Mito-GFP. For analyses of recovery, the bleached ROIs were divided into four subregions along the axon length so that we could distinguish anterograde from retrograde transport-driven Mito-GFP recovery. […] Since this effect of MAG-Fc on recovery could derive from either axons or cell body, we cultured dissociated DRGs in microfluiclic devices where we could limit exposure to MAG-Fc and TubA to the axons.
For primary culture of rat DRG neurons, L4-5 DRG were harvested in Hibernate-A medium (BrainBits) and then dissociated using type I collagenase (50 U/ml; Gibco) for 20 min at 37° C. and 5% CO2(Twiss et al., 2000). Dissociated ganglia were cultured in complete medium containing 10% FetalPlex animal serum complex (Gemini), 1% N1 Supplement (Sigma-Aldrich), and 10 μM cytosine-arabinoside (Sigma-Aldrich) on laminin/poly-L-lysine-coated substrates. Mouse neurons were used for cultures in microfluidic devices. For these, all cervical, thoracic, and lumbar DRGs were collected and digested with collagenase (4 mg/ml, Worthington) and dispase (1 mg/ml; Sigma-Aldrich) for 45 min at 37° C. and 5% CO2; these cells were plated in DMEM/F12 and 10% FBS at 37° C. and 5% CO2. […]

Miro1 = assay: Anti-Ac-Lys immunoprecipitation of Miro1 from DRG lysates; format: cell-based, rat
Protocol: Protein acetylome profiles from nonneuronal cells have reported acetylation of Miro1/2 and Milton 1/2 but not of Syntaphilin (Choudhary et al., 2009; Lundby et al., 2012; Wagner et al., 2012).
DRG neurons were lysed in 100 mM KCl, 5 mM MgCl2, 10 mM Hepes, pH 7.4, 1 mM DTT, and 0.5% NP-40 supplemented with lx protease inhibitor cocktail (Roche). The lysates were passed through a 25-gauge needle five times and cleared by centrifugation at 12,000 g for […]. Equal amounts of the supernatants were then incubated with primary antibodies overnight, and immunocomplexes were precipitated with Protein G-Dynabeads (Invitrogen) for an additional 2 h at 4° C. with rotation. A cocktail of rabbit and mouse anti-Ac-Lys antibodies (5 μg each; Cell Signaling; 9441 and 9681) was used directly for analyses of Myc-Miro1 transfected cultures by immunoprecipitation. For analysis of endogenous Miro1 acetylation, the anti-Lys antibody cocktail (5 μg of each) was directly cross-linked to 5 mg of M-270 epoxy beads (Dynabeads) using the Dynabeads antibody coupling kit according to the manufacturer's instructions (Life Technologies; 14311D). […]
For immunoblotting, protein lysates or immunoprecipitates were denatured by boiling in Laemmli sample buffer, fractionated by SDS-PAGE, and transferred to nitrocellulose membranes. […] Signals were detected using ECL Prime (GE Healthcare) after extensive washing.

## CN1CCc2c(c3ccccc3n2Cc2ccc(C(=O)NO)cc2)C1 [TubA, tubastatin]
[1]; TubA in axonal compartment
  effect on MAG-Fc-dependent decrease in distal axon mitochondria: prevented by TubA treatment
[1]; TubA treatment
  axon retraction and end bulb formation in distal axons after MAG-Fc: prevented the axon retraction and end bulb formation
Miro1; 10 μM TubA for 4 h, n=4
  pull-down efficiency of Miro1 with anti-Ac-Lys antibody cocktail: 14.1±2.2%
Miro1; treatment with TubA
  anti-Ac-Lys immunoprecipitated Miro1 band: modestly increasing
